Measurements as given in paper PMC6445159, “Resorcinol-, catechol- and saligenin-based bronchodilating β2-agonists as inhibitors of human cholinesterase activity” (Journal of Enzyme Inhibition and Medicinal Chemistry, 2017).
Like-named read-outs stand apart in the source and are kept apart here.

What was measured:
[1] = molecular target: T1, atypical BChE (Homo sapiens, UniProt P06276, D98G); test: Reversible inhibition of atypical BChE (Ellman method, Hunter–Downs evaluation); type: biochemical
T1 construct: Human native serum was used as a source of BChE; from tissue; host or cells: human serum
T1 sequence (P06276 29-602 D98G): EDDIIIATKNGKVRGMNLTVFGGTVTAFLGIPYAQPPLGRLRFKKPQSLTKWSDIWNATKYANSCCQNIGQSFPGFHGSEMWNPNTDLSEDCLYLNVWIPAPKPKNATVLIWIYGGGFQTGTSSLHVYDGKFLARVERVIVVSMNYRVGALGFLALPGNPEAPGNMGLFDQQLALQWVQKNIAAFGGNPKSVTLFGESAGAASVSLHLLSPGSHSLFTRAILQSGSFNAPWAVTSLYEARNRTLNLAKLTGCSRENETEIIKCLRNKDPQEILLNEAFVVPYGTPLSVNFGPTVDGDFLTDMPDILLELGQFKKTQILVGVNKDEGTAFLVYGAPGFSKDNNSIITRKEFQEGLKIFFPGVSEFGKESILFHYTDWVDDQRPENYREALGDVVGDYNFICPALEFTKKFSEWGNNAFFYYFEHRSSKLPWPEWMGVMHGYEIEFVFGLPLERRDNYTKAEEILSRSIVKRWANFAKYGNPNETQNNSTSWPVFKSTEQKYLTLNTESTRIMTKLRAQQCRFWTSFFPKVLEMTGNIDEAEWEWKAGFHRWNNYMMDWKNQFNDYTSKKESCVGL
Experimental: (§1) ATCh was used as a substrate for AChE and PTCh as a substrate for BChE. The reaction mixture contained DTNB (final concentration 0.3 mM), buffer, enzyme suspension, inhibitor (0.5–10 mM) and ATCh or PTCh (0.025–1.0 mM). Inhibition of enzymes was determined by measuring the decrease in enzyme activity in the presence of inhibitors.
(§2) The dissociation constant for an enzyme–inhibitor complex K(I) was evaluated from the impact of substrate concentrations [S] on the degree of inhibition applying the Hunter–Downs equation[17]^,[39]: Ki,app=vi/v0-vi·[I]=K(I)+K(I)/K(S)·[S] where Ki,app is an apparent enzyme-reversible inhibitor complex dissociation constant obtained at a given substrate concentration [S] in the presence of inhibitor concentration [I] and calculated from the enzyme activities v0 and vi measured without inhibitor and in the presence of inhibitor concentration [I], respectively. K(I) is the enzyme-reversible inhibitor complex dissociation constant and can stand for a complex formed at the catalytic site or for a complex formed at the peripheral site of the enzyme. K(S) is the enzyme-substrate dissociation constant that could be approximated to the Michaelis constant or to the enzyme-substrate dissociation constant when two molecules of the substrate are bound to the enzyme.

[2] = molecular target: T2, fluoride-resistant BChE (Homo sapiens, UniProt P06276); conditions: substrate PTCh, K(I) ± SE
T2 sequence (P06276 29-602, change not shown): as the sequence (P06276 29-602 D98G) above, with G70D counted along it
Experimental: as §1, §2

[3] = molecular target: T3, usual BChE (Homo sapiens, UniProt P06276); test: biochemical; type: biochemical; conditions: for inhibition potency higher than other compounds of the same group: usual BChE, versus other resorcinol-, catechol- or saligenin-based compounds
T3 construct: Human native serum was used as a source of BChE; from tissue; host or cells: human serum (donor, IMROH Zagreb)
T3 sequence (P06276 29-602): as the sequence (P06276 29-602 D98G) above, with G70D counted along it
Experimental: as §1, §2

[4] = molecular target: T4, human AChE (Homo sapiens, UniProt P22303); test: biochemical; type: biochemical
T4 sequence (P22303 32-614): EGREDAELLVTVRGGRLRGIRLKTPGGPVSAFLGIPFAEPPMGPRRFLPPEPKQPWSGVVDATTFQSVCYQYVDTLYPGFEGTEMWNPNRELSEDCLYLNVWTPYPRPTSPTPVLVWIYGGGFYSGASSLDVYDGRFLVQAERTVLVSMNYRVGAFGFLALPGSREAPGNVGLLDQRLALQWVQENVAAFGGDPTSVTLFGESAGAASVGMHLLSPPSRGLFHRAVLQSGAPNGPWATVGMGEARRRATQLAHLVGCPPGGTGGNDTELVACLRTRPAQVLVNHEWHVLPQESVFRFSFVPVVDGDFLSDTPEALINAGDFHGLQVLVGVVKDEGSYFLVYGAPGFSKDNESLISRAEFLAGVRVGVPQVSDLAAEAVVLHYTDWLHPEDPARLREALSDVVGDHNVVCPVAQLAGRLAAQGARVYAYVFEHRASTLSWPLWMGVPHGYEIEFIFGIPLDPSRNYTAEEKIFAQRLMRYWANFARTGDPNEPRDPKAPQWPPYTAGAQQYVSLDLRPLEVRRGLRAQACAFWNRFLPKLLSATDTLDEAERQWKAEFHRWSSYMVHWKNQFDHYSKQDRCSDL
Experimental: as §1, §2

[5] = system: β-adrenoceptor; conditions: more potent than (S)-enantiomer; cited from earlier work
[6] = molecular target: T3, usual BChE; conditions: K(I) ± SE, cited from earlier work
[7] = molecular target: T1, atypical BChE; conditions: K(I) ± SE; cited from earlier work
[8] = molecular target: T4, human AChE; conditions: K(I) ± SE; cited from earlier work
[9] = molecular target: T2, fluoride-resistant BChE; conditions: K(I) ± SE; cited from earlier work
[10] = enantiomers, substrate PTCh, pH 7.4, 25 °C, K(I) ± SE, read-out: K(I)
[11] = enantiomers, substrate ATCh, pH 7.4, 25 °C, K(I) ± SE, read-out: K(I)
[12] = racemate, 0.1 M phosphate buffer pH 7.4, 25 °C

## CC(C)NC[C@H](O)c1ccc(O)c(O)c1 [(R)-isoproterenol]
[1]; [10]
  Ki: 1400 ± 100 µM
[2]; enantiomers, pH 7.4, 25 °C
  Ki: 1400 ± 200 µM
[3]; [10]
  Ki: 810 ± 130 µM
[4]; [11]
  Ki: 2000 ± 500 µM

## CC(C)(C)NC[C@H](O)c1ccc(O)c(CO)c1 [(R)-salbutamol]
[1]; [10]
  Ki: 2300 ± 200 µM
[2]; enantiomers, pH 7.4, 25 °C
  Ki: 300 ± 60 µM
[3]; [10]
  Ki: 190 ± 40 µM
[4]; [11]
  Ki: 4000 ± 300 µM
[5]
  potency as β-adrenoceptor agonist relative to (S)-enantiomer: approximately 80 times

## OCc1cc([C@@H](O)CNCCCCCCOCCCCc2ccccc2)ccc1O [(R)-salmeterol]
[1]; [10]
  Ki: 71 ± 19 µM
[2]; enantiomers, pH 7.4, 25 °C
  Ki: 31 ± 4 µM
[3]; [10]
  Ki: 15 ± 1 µM
[4]; [11]
  Ki: 33 ± 3 µM

## CC(C)(C)NC[C@H](O)c1cc(O)cc(O)c1 [(R)-terbutaline]
[1]; atypical BChE, K(I) racemate versus (R) enantiomer
  stereoselectivity: preference for (R) enantiomer over racemate: 3 fold
[1]; [10]
  Ki: 1000 ± 100 µM
[2]; enantiomers, pH 7.4, 25 °C
  Ki: 220 ± 50 µM
[3]; [10]
  Ki: 110 ± 30 µM
[4]; AChE, K(I) racemate versus (R) enantiomer
  stereoselectivity: preference for (R) enantiomer over racemate: 2 fold
[4]; [11]
  Ki: 2000 ± 300 µM

## CC(C)(C)NC[C@@H](O)c1ccc(O)c(CO)c1 [(S)-salbutamol]
[1]; [10]
  Ki: 1500 ± 200 µM
[2]; enantiomers, pH 7.4, 25 °C
  Ki: 300 ± 40 µM
[3]; [10]
  Ki: 310 ± 50 µM
[4]; [11]
  Ki: 1800 ± 100 µM

## OCc1cc([C@H](O)CNCCCCCCOCCCCc2ccccc2)ccc1O [(S)-salmeterol]
[1]; [10]
  Ki: 67 ± 13 µM
[2]; enantiomers, pH 7.4, 25 °C
  Ki: 20 ± 3 µM
[3]; [10]
  Ki: 15 ± 1 µM
[4]; [11]
  Ki: 28 ± 6 µM

## CNC[C@H](O)c1ccc(O)c(O)c1 [Epinephrine]
[1]; read-out: K(I)
  Ki: 1600 ± 1000 µM
[2]; [12]
  Ki: 3800 ± 1500 µM
[3]
  Ki: 3700 ± 1200 µM
  selectivity: inhibition of usual BChE more potent than AChE (ratio of K(I) constants): lowest selectivity
[4]
  Ki: 6400 ± 1100 µM

## CC(Cc1ccc(O)cc1)NCC(O)c1cc(O)cc(O)c1 (centres unmarked) [Fenoterol]
[1]
  Ki: 630 ± 30 µM
[2]; [12]
  Ki: 61 ± 17 µM
[3]
  Ki: 24 ± 1 µM
[4]
  Ki: 860 ± 50 µM

## CCC(NC(C)C)C(O)c1ccc(O)c(O)c1 (centres unmarked) [Isoetharine]
[1]
  Ki: 260 ± 50 µM
[2]; [12]
  Ki: 86 ± 4 µM
[3]; read-out: K(I)
  Ki: 31 ± 3 µM
[3]
  inhibition potency higher than other compounds of the same group: ≤ 120 times
[4]; AChE, compared to isoproterenol
  higher inhibition potency: 12 fold
[4]; read-out: K(I)
  Ki: 210 ± 40 µM

## CC(C)NCC(O)c1ccc(O)c(O)c1 (centres unmarked) [Isoproterenol]
[4]; AChE, compared to epinephrine
  increase in inhibition potency: 2 fold
[6]; read-out: K(I)
  Ki: 470 ± 210 µM
[7]
  Ki: 1600 ± 300 µM
[8]
  Ki: 2500 ± 1000 µM
[9]
  Ki: 990 ± 120 µM

## CC(C)NCC(O)c1cc(O)cc(O)c1 (centres unmarked) [Metaproterenol]
[6]
  Ki: 550 ± 110 µM
[7]
  Ki: 6100 ± 700 µM
[9]
  Ki: 870 ± 180 µM

## CC(C)(C)NCC(O)c1ccc(O)c(CO)c1 (centres unmarked) [Salbutamol]
[1]
  Ki: 1400 ± 200 µM
[2]; [12]
  Ki: 190 ± 20 µM
[3]
  Ki: 71 ± 6 µM
  selectivity: inhibition of usual BChE more potent than AChE (ratio of K(I) constants): 28 times
[4]
  Ki: 2000 ± 200 µM
[4]; AChE, compared to terbutaline
  higher inhibition potency: two times

## OCc1cc(C(O)CNCCCCCCOCCCCc2ccccc2)ccc1O (centres unmarked) [Salmeterol]
[1]
  Ki: 86 ± 18 µM
[2]; [12]
  Ki: 9.8 ± 2.3 µM
[3]
  Ki: 13 ± 1 µM
  selectivity: inhibition of usual BChE more potent than AChE (ratio of K(I) constants): two times
  inhibition potency higher than other compounds of the same group: ≤ 5.5 times
[4]
  Ki: 30 ± 2 µM
[4]; AChE, salmeterol versus salbutamol
  increase in inhibition potency: 67 fold

## CC(C)(C)NCC(O)c1cc(O)cc(O)c1 (centres unmarked) [Terbutaline]
[3]
  selectivity: inhibition of usual BChE more potent than AChE (ratio of K(I) constants): 27 times
[4]; read-out: K(I)
  Ki: 4800 ± 200 µM
[6]
  Ki: 180 ± 150 µM
[7]
  Ki: 3300 ± 700 µM
[9]
  Ki: 300 ± 320 µM

## (R)-epinephrine
[1]; [10]
  Ki: 12000 ± 2000 µM
[3]; [10]
  Ki: 4700 ± 1800 µM
[4]; [11]
  Ki: 3200 ± 400 µM
